Reference: patent US6093692A, “Method and compositions for lipidization of hydrophilic molecules” (The University of Southern California, priority 1997, dated 2000)
Values belong to the molecule of their own block, whether it stands above or below them.

Tests used:
[1] = Gastro-intestinal absorption and calcium-lowering effect after oral administration; assay type: in vivo, CF mice; conditions: 100 μg/kg in PBS, one hour, CT-RIA, N = 3, S.D.
Protocol: CT and CT-P were orally administered to CF mice using a gavaging needle at a dose of 100 μg/kg in PBS. The mice, three of each group, were sacrificed 1 hour after the treatment, and the plasma was isolated from their blood. The levels of CT and calcium were measured by using commercial CT-RIA (Phoenix) and calcium diagnostic (Sigma Chemical Co.) kits, respectively. […] Furthermore, the level of calcium in plasma at 1 hour was lower in CT-P treated mice than that in CT treated mice, which was consistent with the finding in CT levels. Because the crossreactivity of CT-P to the anti-CT antibody is only about 10%, the actual concentration of total CT in the plasma of CT-P treated mice could be even higher than the value presented in Table 5.

[2] = Plasma calcitonin and calcium after subcutaneous administration; assay type: in vivo, mice; conditions: s.c., 125 μg/kg in 10% Liposyn II
Protocol: Both CT and CT-P were iodinated with ^125 I using chloramine T method. ^125 I-CT or ^125 I-CT-P was injected s.c. into mice at a dose of 125 μg/kg in 10% Liposyn® II (Abbott). Groups of three mice were sacrificed at different time points. The levels of calcium in the blood samples were determined by using a commercial calcium diagnostic kit (Sigma Chemical Co.). The plasma from each mouse was isolated and treated with 5% trichloroacetic acid (TCA) in an ice bath. The radioactivity in the hs TCA precipitates were considered as the intact CT in the plasma.

[3] = test system: Brattleboro rats with hereditary hypothalamic diabetes insipidus; assay: Anti-diuretic effects in rats with hereditary hypothalamic diabetes insipidus, subcutaneous; assay type: in vivo; conditions: s.c., 3.3 μg/kg in 10% Liposyn II, FIG. 7
Protocol: Brattleboro rats, which carry the hereditary disease of hypothalamic diabetes insipidus, were used to compare the effects of DP and DP-P for alleviating the disease symptoms, i.e., polyuria and polydipsia. A group of three Brattleboro rats were kept separately in three metabolic cages. Their body weight, water intake and urine output were measured every day. DP and DP-P were dissolved in 10% Liposyn® II (Abbott Laboratories, Abbott Park, Ill., USA) and injected subcutaneously (s.c.) to each rat at doses ranging from 0.02 to 20 μg/kg. […] On the other hand, DP-P at the identical dose could maintain the rats symptom-free for more than 3 days, as indicated by the reduction of both water intake and urine output without significant change of the body weight.
In order to evaluate the dose-dependent responses to DP and DP-P in Battleboro rats, the effectiveness of anti-diuretic activity was defined as the length of time that a more than 50% reduction of the urine volume can be maintained in the treated animals.

[4] = test system: mouse fibroblasts L929 cells; assay: Cellular uptake of HRPssPal; assay type: cell-based; conditions: 30 μg/ml, serum-free medium, 1 hour, 37° C.
Protocol: Confluent monolayers of mouse fibroblasts L929 cells in 6-well culture cluster plates were incubated in serum-free medium with 30 μg/ml of HRP, either as the native form or as the palmitic acid conjugate (HRPssPal). After 1 hour at 37° C., monolayers were washed three times with PBS and then dissolved in 1 ml of 0.05% of Triton-X100. Cell-associated HRP was determined by measuring the enzymatic activity in each cell extract and the results converted to ng HRP per cell monolayer. […] Therefore, a 30-fold increase in cell uptake was achieved by modification of HRP with Pal-PDC.

[5] = test system: Caco-2 monolayers; assay type: in vitro ADME, Human
Protocol: Suspended Caco-2 cells in 1.5 ml of medium were seeded into the apical chamber of the transwells at a density of 0.5 million cells per insert. 2.5 ml of the medium was then added to the basal chambers of each transwell. The cells were allowed to attach for 2 days without disturbance and were then fed every other day until the experiments were performed. The cells were maintained for approximately 14-20 days prior to the experiments and were fed 24 hr before each experiment. The cell monolayers developed a transepithelial electrical resistance (TEER) of approximately 500-600 .OMEGA.) cm^2 within one week of the seeding and maintained this resistance for up to 21 days post-seeding.
Confluent cell monolayers, 2 to 3 weeks old, and having a TEER value of approximately 500 .OMEGA. cm^2, were first incubated with Dulbecco's MEM containing 1% of FBS for 30 min at 37° C. […] At predetermined times, the entire basal chamber medium (2.5 ml) from each transwell was removed and counted for radioactivity using a gamma counter. […] After the 24 hr samples were taken, the cell monolayers were rinsed three times with ice-cold PBS, cut out of the inserts, and counted for accumulated radioactivity using a gamma counter. […]
BBI was modified with 2 or 4 palmitic acids, and the transport was determined in transwells. […]

- Plasma calcitonin concentration, CT [1]: 9.2 ± 0.7 pg/0.1 ml plasma
- Plasma clearance [2]: rapid plasma clearance
Molecule: CC(C)C[C@H](NC(=O)[C@H](CCCCN)NC(=O)CNC(=O)[C@H](CC(C)C)NC(=O)[C@@H](NC(=O)[C@@H]1CSSC[C@H](N)C(=O)N[C@@H](CO)C(=O)N[C@@H](CC(N)=O)C(=O)N[C@@H](CC(C)C)C(=O)N[C@@H](CO)C(=O)N[C@@H]([C@@H](C)O)C(=O)N1)C(C)C)C(=O)N[C@@H](CO)C(=O)N[C@@H](CCC(N)=O)C(=O)N[C@@H](CCC(=O)O)C(=O)N[C@@H](CC(C)C)C(=O)N[C@@H](Cc1c[nH]cn1)C(=O)N[C@@H](CCCCN)C(=O)N[C@@H](CC(C)C)C(=O)N[C@@H](CCC(N)=O)C(=O)N[C@H](C(=O)N[C@@H](Cc1ccc(O)cc1)C(=O)N1CCC[C@H]1C(=O)N[C@@H](CCCNC(=N)N)C(=O)N[C@H](C(=O)N[C@@H](CC(N)=O)C(=O)N[C@H](C(=O)NCC(=O)N[C@@H](CO)C(=O)NCC(=O)N[C@H](C(=O)N1CCC[C@H]1C(N)=O)[C@@H](C)O)[C@@H](C)O)[C@@H](C)O)[C@@H](C)O [CT, Salmon calcitonin]

Molecule: NC(=O)CC[C@@H]1NC(=O)[C@H](Cc2ccccc2)NC(=O)[C@H](Cc2ccc(O)cc2)NC(=O)CCSSC[C@@H](C(=O)N2CCC[C@H]2C(=O)N[C@H](CCCN=C(N)N)C(=O)NCC(N)=O)NC(=O)[C@H](CC(N)=O)NC1=O [DP, Desmopressin]
- Time rats maintained symptom-free [3]: less than one

Molecule: horseradish peroxidase [HRP]
- Cellular uptake [4]: 7 ng HRP per cell monolayer

B1: BBIssPal(4): BBI modified with 4 palmitic acids (conjugate, UniProt P01055 40-110, looked up)
Bowman-Birk type proteinase …: DDESSKPCCDQCACTKSNPPQCRCSDMRLNSCHSACKSCICALSYPAQCFCVDITDFCYEPCKPSEDDKEN
modifications: 4 palmityl disulfide groups
notes: BBI modified with 4 palmitic acids
- Internalization of the conjugates into the cells (rank) [5]: highest uptake into the cells
